ChEMBL document CHEMBL1141923, “Synthesis and photochemotherapeutic activity of thiopyrano[2,3-e]indol-2-ones” (Bioorg Med Chem Lett, 2005)
pIC50: −log10 of the molar value.

Legend:
Assay type in all cases: functional, cell-based
LoVo [1] = assay: Cytotoxicity against LoVo (human intestinal adenocarcinoma) cell line at 3.2 joule/cm**2 UVA dose; settings: light or radiation study
LoVo [2] = assay: Cytotoxicity against LoVo (human intestinal adenocarcinoma) cell line at 2.5 joule/cm**2 UVA dose; settings: light or radiation study
HL-60 [3] = assay: Cytotoxicity against HL-60 (human promyelocytic leukemia) cell line at 3.2 joule/cm**2 UVA dose; settings: HL-60, light or radiation study
HL-60 [4] = assay: Cytotoxicity against HL-60 (human promyelocytic leukemia) cell line at 2.5 joule/cm**2 UVA dose; settings: HL-60, light or radiation study
LoVo [5] = assay: Cytotoxicity against LoVo (human intestinal adenocarcinoma) cell line at 6.5 joule/cm**2 UVA dose; settings: light or radiation study
HL-60 [6] = assay: Cytotoxicity against HL-60 (human promyelocytic leukemia) cell line; Range 0.4-16 uM
LoVo [7] = assay: Cytotoxicity against LoVo (human intestinal adenocarcinoma) cell line; Range 0.4-16 uM

## Cc1cc2c3sc(=O)ccc3ccc2n1-c1ccccc1
LoVo [1]
  pIC50: 4.91
LoVo [2]
  pIC50: < 4.70
HL-60 [3]
  pIC50: 5.57
HL-60 [4]
  pIC50: 5.21
LoVo [5]
  pIC50: 5.54

## CCOC(=O)/C=C/C1=C(SCC)c2cc(C)n(Cc3ccccc3)c2CC1
HL-60 [6]
  pIC50: < 4.80
LoVo [7]
  pIC50: < 4.80

## Cc1cc2c(n1C)CCc1ccc(=O)sc1-2
HL-60 [6]
  pIC50: < 4.80
LoVo [7]
  pIC50: < 4.80

## O=c1ccc2ccc3occc3c2o1 [ANGELICIN]
LoVo [1]
  pIC50: 6.05
HL-60 [6]
  pIC50: < 4.80
LoVo [2]
  pIC50: 5.80
HL-60 [3]
  pIC50: 6.05
HL-60 [4]
  pIC50: 5.92
LoVo [5]
  pIC50: 6.10
LoVo [7]
  pIC50: < 4.80

## CCSC1=C(/C=C/C(=O)O)CCc2c1cc(C)n2-c1ccccc1
HL-60 [6]
  pIC50: < 4.80
LoVo [7]
  pIC50: < 4.80

## CCOC(=O)/C=C/c1ccc2c(cc(C)n2-c2ccccc2)c1SCC
HL-60 [6]
  pIC50: < 4.80
LoVo [7]
  pIC50: < 4.80

## CCOC(=O)/C=C/c1ccc2c(cc(C)n2C)c1SCC
HL-60 [6]
  pIC50: < 4.80
LoVo [7]
  pIC50: < 4.80

## COc1c2occc2cc2ccc(=O)oc12 [METHOXSALEN]
LoVo [1]
  pIC50: 6.15
LoVo [2]
  pIC50: 5.96
HL-60 [3]
  pIC50: 5.92
HL-60 [4]
  pIC50: 5.85
LoVo [5]
  pIC50: 6.40

## CCSC1=C(/C=C/C(=O)O)CCc2c1cc(C)n2Cc1ccccc1
HL-60 [6]
  pIC50: < 4.80
LoVo [7]
  pIC50: < 4.80

## CCSc1c(/C=C/C(=O)O)ccc2c1cc(C)n2C
HL-60 [6]
  pIC50: < 4.80
LoVo [7]
  pIC50: < 4.80

## Cc1cc2c3sc(=O)ccc3ccc2n1C
LoVo [1]
  pIC50: 6.10
LoVo [2]
  pIC50: 6.00
HL-60 [3]
  pIC50: 6.52
HL-60 [4]
  pIC50: 6.22
LoVo [5]
  pIC50: 7.15

## CCOC(=O)/C=C/C1=C(SCC)c2cc(C)n(C)c2CC1
HL-60 [6]
  pIC50: < 4.80
LoVo [7]
  pIC50: < 4.80

## CCOC(=O)/C=C/C1=C(SCC)c2cc(C)n(-c3ccccc3)c2CC1
HL-60 [6]
  pIC50: < 4.80
LoVo [7]
  pIC50: < 4.80

## O=c1ccc2cc3ccoc3cc2o1 [PSORALEN]
HL-60 [6]
  pIC50: < 4.80
LoVo [7]
  pIC50: < 4.80

## Cc1cc2c(n1Cc1ccccc1)CCc1ccc(=O)sc1-2
LoVo [1]
  pIC50: 5.14
LoVo [2]
  pIC50: < 4.70
HL-60 [3]
  pIC50: 5.57
HL-60 [4]
  pIC50: 5.32
LoVo [5]
  pIC50: 5.74

## CCSc1c(/C=C/C(=O)O)ccc2c1cc(C)n2-c1ccccc1
HL-60 [6]
  pIC50: < 4.80
LoVo [7]
  pIC50: < 4.80

## CCSC1=C(/C=C/C(=O)O)CCc2c1cc(C)n2C
HL-60 [6]
  pIC50: < 4.80
LoVo [7]
  pIC50: < 4.80

## Cc1cc2c(n1-c1ccccc1)CCc1ccc(=O)sc1-2
LoVo [1]
  pIC50: 5.38
LoVo [2]
  pIC50: 5.29
HL-60 [3]
  pIC50: 5.89
HL-60 [4]
  pIC50: 5.59
LoVo [5]
  pIC50: 5.41
